Experimental data reported in US10017554B2, “Neuropeptide Y-derived peptides” (University of Copenhagen, priority 2013, dated 2018).

Test system: hippocampal neurons
Experiment: Neurite outgrowth in cultures of rat hippocampal neurons, embryonic day 19, 24 h
Format: cell-based
Conditions: for neurite outgrowth / neuritogenic effect (in words): E19 prenatal rat hippocampal cultures; for Neuritogenic effect 3 μM NPY fragment (% of control): 3 μM peptide
Description: When pharmacological inhibitors or antagonist are applied these are added to cultures 10 min prior to peptide addition. When soluble immunoglobulin modules are used, these are preincubated with peptide solution for 10 min before addition of the mix to the cultures. To knock down NCAM expression, the neurons were transfected with a p-GFP—V-RS vector that encodes short-hairpin RNA targeting NCAM (OriGene, Rockville, Md., USA) using a nucleofector device and a Rat Neuron Nucleofector kit (Amaxa, Gaithersburg, Md., USA). NCAM knock-out mice (C57BI/6JZtm) were a kind gift from prof. Herbert Hildebrandt (Hannover Medical School) and were created as previous described (Cremer et al., 1994). The neurons were fixed, immunostained, and micrographs were recorded and evaluated as previously described (Rønn et al., 2000; Nielsen et al., 2009). Cf. FIGS. 3-9
Neurite outgrowth in cultures of hippocampal neurons from wistar rats, embryonic stage day 19, incubated for 24 hours (37° C., 5% CO2) in supplemented Neurobasal medium with NPY fragments added; effect compared to un-stimulated controls (set to 100%). Values are mean normalized to un-stimulated controls±standard error of mean (SEM). *P<0.05, […], […], Student's t-test versus un-stimulated control.

[1] = un-stimulated controls set to 100%, mean ± SEM

Sequence: SALRHYINLITRQR (listed as Homo sapiens) [NPY22-35]
- neurite outgrowth / neuritogenic effect (in words): does not

Sequence: ALRHYINLITRQRA (listed as Homo sapiens) [NPY23-36 ala36]
- Neuritogenic effect 3 μM NPY fragment (% of control) [1]: 91.7 (n = 1) % of control

Sequence: PAEDMARYYSALRHYINLITRQR (listed as Homo sapiens) [NPY13-35]
- Neuritogenic effect 1 μM NPY fragment (% of control) (1 μM peptide, un-stimulated controls set to 100%, mean ± SEM): 164.2 ± 7.2 % of control
- Neuritogenic effect 3 μM NPY fragment (% of control) [1]: 275.8 ± 31.2 % of control

Sequence: YSALRHYINLITRQR (listed as Homo sapiens) [NPY21-35]
- Neuritogenic effect 3 μM NPY fragment (% of control) [1]: 266.4 ± 26.6 % of control
- neurite outgrowth / neuritogenic effect (in words): induce neurite outgrowth

Sequence: RQRTILNIYHRLASYYRAMDEAPADEGPNDPKS (listed as Homo sapiens) [NPY3-35 reversed sequence, reference compound]
- neurite outgrowth / neuritogenic effect (in words): did not induce the same neuritogenic effects
